The results in this text go back to US20090239217A1, “STEM-LIKE CELLS IN BONE SARCOMAS” (University of Florida Research Foundation, Inc., priority 2008, published 2009).

Assay [1] relates to Oct-4/GFP+ OS521 cells. Kind of assay: Tumor formation in NOD/SCID mice after in vitro pretreatment of Oct-4/GFP-enriched OS521 cells with differentiation inducers. The assay is classed as in vivo. The following applies: 3×10^4 cells per mouse. From the text: It was hypothesized that if the Oct-4/GFP+ tumorigenic cells reflected a stem-like phenotype, their tumorigenic ability might also be inhibited by forced cellular differentiation. Therefore prior to delivery into the NOD/SCID mouse model, the Oct-4/GFP-enriched cell populations were pretreated in vitro with three different compounds known to be potent inducers of differentiation: ATRA, leukemia inhibitory factor (LIF), and recombinant bone morphogenetic protein (BMP) 4/7 heterodimer and evaluated their effect of each on tumorigenicity.
Following delivery of Oct-4/GFP transfected OS521 cells into NOD/SCID mice, cells isolated from the resultant tumors were sorted by FACS and the GFP-enriched population was plated in 12 well plates and treated with either LIF (10^4 to 0.5×10^2 U/ml), ATRA (1 μM), or recombinant BMP 4/7 (100 ng/ml) for 72 hours. Untreated cells were used as controls. Following the incubation period, 5 NOD/SCID mice per group were injected at 3×10^4 cells per mouse with cells from each treated pool and the mice were monitored for subsequent tumor formation. […] The BMPs are members of the TGF-β superfamily and are known to be potent agents of cellular differentiation, particularly with respect to chondro- and osteoinduction of mesenchymal progenitor cells. BMP 4/7 appears to inhibit the tumorigenesis of the Oct-4/GFP+ OS521 cells after transient induction.

The subject of assay [2] is osteosarcoma cultures. The experiment in a line: Tumor generation by osteosarcoma cells cultured with BMP4/7. The format is in vivo. The following applies: cells cultured in DMEM with 75-100 ng/ml BMP4/7; 10 weeks post-treatment. The procedure:
(§1) Cells were cultured in DMEM and 75-100 ng/ml of BMP4/7 (control cells were not cultured with BMP4/7).

Assay [3] relates to Oct-4/EGFP expression. Kind of assay: Oct-4/EGFP expression in osteosarcoma cultures treated in vitro. The assay is classed as cell-based. To be noted: osteosarcoma cultures in DMEM with 75-100 ng/ml BMP4/7; FIG. 13. Here is the method: as §1

Consider leukemia inhibitory factor [LIF], for which the tumor formation result in assay [1] (GFP-enriched OS521 cells treated with LIF 10^4 to 0.5×10^2 U/ml for 72 hours) was “tumor formation by 5 weeks”.

Regarding `CC1=C(/C=C/C(C)=C/C=C/C(C)=C/C(=O)O)C(C)(C)CCC1` [ATRA, reference compound], the tumor formation result in assay [1] (GFP-enriched OS521 cells treated with ATRA 1 μM for 72 hours) is “tumor formation by 5 weeks”.

As for “recombinant bone morphogenetic protein (BMP) 4/7 heterodimer [BMP 4/7]”, in assay [2], the “tumor generation by treated cells” value was “have not yet generated tumors”. Moreover, in assay [3], the Oct-4/EGFP expression result is on record as “affects Oct-4/EGFP expression”. In assay [1] (GFP-enriched OS521 cells treated with recombinant BMP 4/7 100 ng/ml for 72 hours, followed twelve weeks), the tumor formation entry is on record as “none of the mice in the BMP 4/7 treated group developed tumors by twelve weeks”.
